Test results taken from PubChem BioAssay (NCI).
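Compound exposure: 48 hours, 5 concentrations, 96-well plates. TGI: total growth inhibition.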

Assays:
Assay in all cases: DTP human tumour cell line panel, 48 h
SF-539 CNS = tested on: SF-539 CNS
SK-MEL-2 melanoma = tested on: SK-MEL-2 melanoma
HCT-116 colon = tested on: HCT-116 colon
786-0 renal = tested on: 786-0 renal
HCT-15 colon = tested on: HCT-15 colon
RXF 393 renal = tested on: RXF 393 renal
IGROV1 ovarian = tested on: IGROV1 ovarian
SR leukemia = tested on: SR leukemia
HOP-92 NSCLC = tested on: HOP-92 NSCLC
A549 NSCLC = tested on: A549 NSCLC
K-562 leukemia = tested on: K-562 leukemia
DU-145 prostate = tested on: DU-145 prostate
SNB-75 CNS = tested on: SNB-75 CNS
T-47D breast = tested on: T-47D breast
SF-295 CNS = tested on: SF-295 CNS
SN12C renal = tested on: SN12C renal
U251 CNS = tested on: U251 CNS
TK-10 renal = tested on: TK-10 renal
MDA-N = tested on: MDA-N
UACC-62 melanoma = tested on: UACC-62 melanoma
HCC-2998 colon = tested on: HCC-2998 colon
A498 renal = tested on: A498 renal
SNB-19 CNS = tested on: SNB-19 CNS
KM12 colon = tested on: KM12 colon
RPMI-8226 leukemia = tested on: RPMI-8226 leukemia
NCI-H460 lung = tested on: NCI-H460 lung
PC-3 prostate = tested on: PC-3 prostate
MALME-3M melanoma = tested on: MALME-3M melanoma
OVCAR-5 ovarian = tested on: OVCAR-5 ovarian
NCI-H522 lung = tested on: NCI-H522 lung
M14 melanoma = tested on: M14 melanoma
MOLT-4 leukemia = tested on: MOLT-4 leukemia
OVCAR-8 ovarian = tested on: OVCAR-8 ovarian
OVCAR-3 ovarian = tested on: OVCAR-3 ovarian
COLO 205 colon = tested on: COLO 205 colon
SK-MEL-5 melanoma = tested on: SK-MEL-5 melanoma
ACHN renal = tested on: ACHN renal
SK-OV-3 ovarian = tested on: SK-OV-3 ovarian
HL-60(TB) leukemia = tested on: HL-60(TB) leukemia
NCI-H226 lung = tested on: NCI-H226 lung
SW-620 colon = tested on: SW-620 colon
SK-MEL-28 melanoma = tested on: SK-MEL-28 melanoma
HOP-62 NSCLC = tested on: HOP-62 NSCLC
MDA-MB-231 breast = tested on: MDA-MB-231 breast
UO-31 renal = tested on: UO-31 renal
UACC-257 melanoma = tested on: UACC-257 melanoma
MCF7 breast = tested on: MCF7 breast
SF-268 CNS = tested on: SF-268 CNS
LOX IMVI melanoma = tested on: LOX IMVI melanoma
CCRF-CEM leukemia = tested on: CCRF-CEM leukemia
NCI/ADR-RES ovarian = tested on: NCI/ADR-RES ovarian
MDA-MB-435 = tested on: MDA-MB-435
OVCAR-4 ovarian = tested on: OVCAR-4 ovarian
HT29 colon = tested on: HT29 colon
EKVX NSCLC = tested on: EKVX NSCLC
NCI-H23 lung = tested on: NCI-H23 lung
BT-549 breast = tested on: BT-549 breast
HS 578T breast = tested on: HS 578T breast
CAKI-1 renal = tested on: CAKI-1 renal

Measured: TGI

O=C1CC(c2ccccc2Cl)C2(C(=O)NC(=S)NC2=O)C(c2ccccc2Cl)C1 (centres undefined)
34.4 µM: MDA-MB-435
30.6 µM: UACC-257 melanoma
37.7 µM: NCI-H23 lung
38.9 µM: M14 melanoma
41 µM: HCT-116 colon
32.1 µM: HOP-92 NSCLC
98.2 µM: BT-549 breast
55.7 µM: ACHN renal
27.1 µM: KM12 colon
93.5 µM: T-47D breast
49.6 µM: OVCAR-8 ovarian
22.8 µM: HS 578T breast
58.6 µM: SK-MEL-5 melanoma
81.8 µM: PC-3 prostate
60 µM: OVCAR-3 ovarian
99.3 µM: NCI-H522 lung
65.8 µM: SN12C renal
62 µM: SK-MEL-2 melanoma
52.1 µM: HCC-2998 colon
53.6 µM: HCT-15 colon
40.2 µM: MCF7 breast
30.9 µM: SNB-19 CNS
31 µM: MALME-3M melanoma
38.3 µM: SF-268 CNS
71.4 µM: NCI-H226 lung
32.8 µM: RXF 393 renal | U251 CNS
40.8 µM: UACC-62 melanoma
42.9 µM: NCI-H460 lung
> 100 µM: SF-539 CNS | SR leukemia | K-562 leukemia | DU-145 prostate | SNB-75 CNS | MDA-N | RPMI-8226 leukemia | OVCAR-5 ovarian | MOLT-4 leukemia | COLO 205 colon | SK-OV-3 ovarian | HL-60(TB) leukemia | SW-620 colon | SK-MEL-28 melanoma | HOP-62 NSCLC | UO-31 renal | CCRF-CEM leukemia | NCI/ADR-RES ovarian | OVCAR-4 ovarian | HT29 colon | EKVX NSCLC
36.4 µM: LOX IMVI melanoma
40.4 µM: A498 renal
0.206 µM: TK-10 renal
51 µM: 786-0 renal
72.8 µM: MDA-MB-231 breast
77 µM: IGROV1 ovarian
66.6 µM: SF-295 CNS
65.5 µM: A549 NSCLC

O=S(=O)(c1ccccc1)[C@H]1[C@@H]2O[C@@H]2C[C@@H]1O
> 100 µM: SF-539 CNS | SK-MEL-2 melanoma | HCT-116 colon | 786-0 renal | HCT-15 colon | RXF 393 renal | IGROV1 ovarian | SR leukemia | HOP-92 NSCLC | A549 NSCLC | K-562 leukemia | DU-145 prostate | SNB-75 CNS | T-47D breast | SF-295 CNS | SN12C renal | U251 CNS | TK-10 renal | MDA-N | UACC-62 melanoma | HCC-2998 colon | A498 renal | SNB-19 CNS | KM12 colon | RPMI-8226 leukemia | NCI-H460 lung | PC-3 prostate | MALME-3M melanoma | OVCAR-5 ovarian | NCI-H522 lung | M14 melanoma | MOLT-4 leukemia | OVCAR-8 ovarian | OVCAR-3 ovarian | COLO 205 colon | SK-MEL-5 melanoma | ACHN renal | CAKI-1 renal | SK-OV-3 ovarian | HL-60(TB) leukemia | NCI-H226 lung | SW-620 colon | SK-MEL-28 melanoma | HOP-62 NSCLC | MDA-MB-231 breast | UO-31 renal | UACC-257 melanoma | MCF7 breast | SF-268 CNS | CCRF-CEM leukemia | NCI/ADR-RES ovarian | MDA-MB-435 | OVCAR-4 ovarian | HT29 colon | EKVX NSCLC | NCI-H23 lung | BT-549 breast | HS 578T breast

Cc1cc(CN2CCCCC2)c(O)c(CN2CCCCC2)c1
> 100 µM: SK-MEL-2 melanoma | HCT-116 colon | 786-0 renal | HCT-15 colon | RXF 393 renal | IGROV1 ovarian | SR leukemia | HOP-92 NSCLC | A549 NSCLC | K-562 leukemia | DU-145 prostate | SNB-75 CNS | T-47D breast | SF-295 CNS | SN12C renal | U251 CNS | TK-10 renal | MDA-N | UACC-62 melanoma | HCC-2998 colon | A498 renal | SNB-19 CNS | KM12 colon | RPMI-8226 leukemia | NCI-H460 lung | PC-3 prostate | MALME-3M melanoma | OVCAR-5 ovarian | NCI-H522 lung | M14 melanoma | OVCAR-8 ovarian | OVCAR-3 ovarian | COLO 205 colon | SK-MEL-5 melanoma | ACHN renal | CAKI-1 renal | SK-OV-3 ovarian | HL-60(TB) leukemia | NCI-H226 lung | SW-620 colon | SK-MEL-28 melanoma | HOP-62 NSCLC | MDA-MB-231 breast | UO-31 renal | UACC-257 melanoma | MCF7 breast | SF-268 CNS | LOX IMVI melanoma | CCRF-CEM leukemia | NCI/ADR-RES ovarian | MDA-MB-435 | OVCAR-4 ovarian | HT29 colon | EKVX NSCLC | NCI-H23 lung | BT-549 breast | HS 578T breast

CC(=O)c1c(C)cn(S(=O)(=O)NC(=O)Nc2nncs2)c1C
78.1 µM: CCRF-CEM leukemia
> 100 µM: SK-MEL-2 melanoma | HCT-116 colon | 786-0 renal | HCT-15 colon | RXF 393 renal | IGROV1 ovarian | SR leukemia | HOP-92 NSCLC | A549 NSCLC | K-562 leukemia | DU-145 prostate | SNB-75 CNS | T-47D breast | SF-295 CNS | SN12C renal | U251 CNS | TK-10 renal | MDA-N | UACC-62 melanoma | HCC-2998 colon | A498 renal | SNB-19 CNS | KM12 colon | RPMI-8226 leukemia | NCI-H460 lung | PC-3 prostate | MALME-3M melanoma | OVCAR-5 ovarian | NCI-H522 lung | M14 melanoma | MOLT-4 leukemia | OVCAR-8 ovarian | OVCAR-3 ovarian | COLO 205 colon | SK-MEL-5 melanoma | ACHN renal | CAKI-1 renal | SK-OV-3 ovarian | HL-60(TB) leukemia | NCI-H226 lung | SW-620 colon | SK-MEL-28 melanoma | HOP-62 NSCLC | MDA-MB-231 breast | UO-31 renal | UACC-257 melanoma | MCF7 breast | SF-268 CNS | LOX IMVI melanoma | NCI/ADR-RES ovarian | MDA-MB-435 | OVCAR-4 ovarian | HT29 colon | EKVX NSCLC | NCI-H23 lung | BT-549 breast | HS 578T breast

Clc1ccc(-c2noc(CN3CCCCC3)n2)cc1
> 100 µM: SF-539 CNS | SK-MEL-2 melanoma | HCT-116 colon | 786-0 renal | HCT-15 colon | RXF 393 renal | IGROV1 ovarian | SR leukemia | HOP-92 NSCLC | A549 NSCLC | K-562 leukemia | DU-145 prostate | SNB-75 CNS | T-47D breast | SF-295 CNS | SN12C renal | U251 CNS | TK-10 renal | MDA-N | UACC-62 melanoma | HCC-2998 colon | A498 renal | SNB-19 CNS | KM12 colon | RPMI-8226 leukemia | NCI-H460 lung | PC-3 prostate | MALME-3M melanoma | OVCAR-5 ovarian | NCI-H522 lung | M14 melanoma | MOLT-4 leukemia | OVCAR-8 ovarian | OVCAR-3 ovarian | COLO 205 colon | SK-MEL-5 melanoma | ACHN renal | CAKI-1 renal | SK-OV-3 ovarian | HL-60(TB) leukemia | NCI-H226 lung | SW-620 colon | SK-MEL-28 melanoma | HOP-62 NSCLC | MDA-MB-231 breast | UO-31 renal | UACC-257 melanoma | MCF7 breast | SF-268 CNS | CCRF-CEM leukemia | NCI/ADR-RES ovarian | MDA-MB-435 | OVCAR-4 ovarian | HT29 colon | EKVX NSCLC | NCI-H23 lung | BT-549 breast | HS 578T breast
